Reference: patent publication EP4653017A1, “ANTIBODY-DRUG CONJUGATE AND USE THEREOF” (Tyligand Bioscience (Shanghai) Limited, priority 2023, dated 2024)
Where a name gives a salt, the structure may show the parent alone. Read-outs that look alike come from different tables or passages of the source.

Columns and labels:
B16F10 = experiment: Inhibition of tumor cell line proliferation (Table 3), B16F10; format: cell-based; conditions: B16-F10; B16F10, Mouse melanoma cells
THP-1 cells = experiment: Activation of IFN-β secretion by THP-1 cells (IFN-beta ELISA); format: cell-based, human; conditions: for EC50: read-out: THP-1 activity; for STING agonist activity (in words): EC50 stronger than 2',3'-cGAMP, comparable to ADU-S100
Daudi = experiment: Inhibition of tumor cell line proliferation (Table 3), Daudi; format: cell-based; conditions: Human Burkitt's lymphoma cells
4T1 = experiment: Inhibition of tumor cell line proliferation (Table 3), 4T1; format: cell-based; conditions: 4T1, Mouse breast cancer cells
A375 = experiment: Inhibition of tumor cell line proliferation (Table 3), A375; format: cell-based; conditions: A-375; A375, Human melanoma cells
H22 = experiment: Inhibition of tumor cell line proliferation (Table 3), H22; format: cell-based; conditions: H22, Mouse hepatoma cells
CT26 cells [1] = experiment: CT26 syngeneic mouse bilateral transplanted tumor model; format: in vivo, BALB/c mice; conditions: for growth inhibition rates of left tumors: left (untreated) tumor, 50 µg compound/mouse (2.5 mg/kg) intratumorally into right flank on days 0 and 4, day 13 after treatment; for tumor growth inhibition rate: right (treated) tumor, 50 µg compound/mouse (2.5 mg/kg) intratumorally on days 0 and 4, 13 days post treatment
Protocol: When tumors grew to an average volume of 100 mm^3, treatments were randomized and started based on tumor size and mouse body weight. The first day of dosing was Day 0. Two doses were administered, 50 µg compound/mouse (i.e., 2.5 mg/kg) was injected intratumorally into the right flank on days 0 and 4, and the same volume of PBS (Hyclone Company, Cat. No. #SH30258.01) was used as a control. The left tumor was left untreated. Control mice were sacrificed after 13 days of dosing and treated mice were sacrificed 21 days later. During the experiment, the tumor volume and body weight were measured three times a week on the left and right sides, and the tumor volume was calculated as V = D × d × d/2 (wherein D represents the long diameter of the tumor and d represents the short diameter of the tumor).

MC38 = experiment: Inhibition of tumor cell line proliferation (Table 3), MC38; format: cell-based; conditions: MC-38; MC38, Mouse colon cancer cells
FaDu = experiment: Inhibition of tumor cell line proliferation (Table 3), FaDu; format: cell-based; conditions: Human pharyngeal squamous carcinoma cell
SK-MEL5 = experiment: Inhibition of tumor cell line proliferation (Table 3), SK-MEL5; format: cell-based; conditions: SK-MEL-5; SK-MEL5, Human melanoma cells
CT26 cells [2] = experiment: Inhibition of CT26 cell proliferation (CellTiter-Glo); format: cell-based, mouse; conditions: for IC50: read-out: CT-26 activity; for inhibitory ability on growth of CT26 tumor cells in vitro (in words): superior to ADU-S100
Protocol: CT26 cells are a mouse colorectal cancer cell line. In this experiment, CellTiter-Glo Luminescence Cell Viability Assay kit from Promega was used to assess the inhibitory activity of the compounds on CT26 cell proliferation.
When CT26 cells (ATCC #CRL-2638) were revived, the cryovial was rapid shaken in a 37°C water bath to thaw with 1 min. The thawed cell suspension was mixed well with DMEM medium (GE Company, Cat. No. #SH30243.01) containing 10% FBS (GIBCO, Cat. No. #10099-141), centrifuged at 1000 rpm for 5 min, and the supernatant was discarded. The cell pellet was resuspended in 5 mL of complete medium (DMEM medium containing 10% FBS), placed in a cell culture flask with a bottom area of 25 cm^2, and cultured in a cell incubator at 37°C, 5% CO2, and 95% humidity. Passage was performed when the confluence rate of cells reached 70%~80%. Referring to the cell passage method at plating, all cells in the flask were transferred to a 15 mL centrifuge tube, centrifuged at 1000 rpm for 5 minutes, and the supernatant was discarded. The cell pellet was resuspended in 5 mL of new complete medium, 1 mL was placed in a cell culture flask with a bottom area of 25 cm^2, and 4 mL of fresh complete medium was added to continue the culture. Plating was performed when the cell confluence rate of cells reached 70% to 80% again. Referring to the cell passage method at plating, 1/5 of the cell suspension was maintained and the remaining 4/5 of the cell suspension was placed in a 15 mL centrifuge tube. The cells were centrifuged, the old medium was discarded, the cells was washed once with DMEM medium (without serum), and centrifuged to remove the supernatant. Cells were resuspended with DMEM medium (without serum). […]. A cell suspension at a density of 1.1 x 10^4 viable cells/mL was prepared using DMEM medium (without serum) and 90 µL of the cell suspension was added to 96-well clear flat-bottom black-walled cell culture plate wells (Corning, Cat. No. #3603) to yield a cell density of 1000 viable cells/well in the plate. A control group without cells, without compounds, and with complete medium only (i.e., culture medium control) was set up, and a control group without compounds and with cells (i.e., cell control) was set up. The plates were incubated overnight in a cell incubator.
A DMSO stock solution of 10 mM compound was first serially diluted at a 3.16-fold dilution ratio with DMSO (Sigma, Cat. No. #D2650) to a ninth concentration and a tenth concentration of DMSO control without compound was set. DMSO solutions containing different concentrations of the compound were then diluted a 10-fold dilution ratio with PBS (Solarbio company, Cat. No. #P1020) to achieve a DMSO content of 10% in each concentration of the compound solution. Finally, 10 µL of the above solution was added to the corresponding cell culture plate to achieve a starting concentration of 100 µM compound, a 3.16-fold dilution ratio of adjacent concentrations, and a DMSO content of 1% in the cell culture plate. The plates were maintained in a cell incubator for an additional 120 hours.
After 120 hours, the CellTiter-Glo reagent (Promega, Cat. No. #G7572) was thawed and the plate was equilibrated at room temperature for 30 min. Then, 100 µL CellTiter-Glo was added to each well of the plate and shaken on an orbital shaker for 5 min to fully lyse the cells. The plate was placed at room temperature for 20 min to stabilize the cold light signal, and the cold light value of each well was scanned with a multifunctional microplate reader (Molecular Devices, Spectramax M3) at full wavelength.
The compound of the present invention and ADU-S100 (MCE, Cat. No. #HY12885A) were used as controls: Clofarabine (Wuhu Huaren Technology, Cat. No. #HR-00701002), Cladribine (CSNpharm, Cat. No. #CSN10004), Gemcitabine Hydrochloride (Shaoyuan, Cat. No. #SY014538), Gemcitabine Prodrug LY2334737 (home-made). […]

A20 = experiment: Inhibition of tumor cell line proliferation (Table 3), A20; format: cell-based; conditions: A20, Mouse B lymphoma cells
[3] = IFN-β secretion, 24 hours incubation, ELISA
[4] = Mus musculus, CT26, 120 hours incubation, CellTiter-Glo

Compound | EC50 (THP-1 cells; Homo sapiens, THP-1, 24 h) [µM] | growth inhibition rates of left tumors (CT26 cells [1]) [%] | IC50 (CT26 cells [2]; Mus musculus, CT26, 120 h) [µM] | STING agonist activity (in words) (THP-1 cells) | inhibitory ability on growth of CT26 tumor cells in vitro (in words) (CT26 cells [2]) | further results
Nc1ncnc2c1ncn2[C@@H]1O[C@@H]2CO[P@@](=O)(S)O[C@@H]3[C@H](O)[C@@H](CO[P@@](=O)(S)O[C@H]2[C@H]1O)O[C@H]3n1cnc2c(N)ncnc21 [ADU-S100, reference compound] | 1 to 10 | 64.2 | > 10 | – | – | IC50 (B16F10): > 10 µM; IC50 (Daudi): > 10 µM; IC50 (4T1): > 10 µM; IC50 (A375): > 10 µM; IC50 (H22): > 10 µM; tumor growth inhibition rate (CT26 cells [1]): 99.1%; IC50 (MC38): > 10 µM; IC50 (FaDu): > 10 µM; IC50 (SK-MEL5): > 10 µM; IC50 (A20): 5.3 µM
N.N.Nc1nc2c(ncn2C2OC3COP(=O)(S)OC4C(COP(=O)(S)OC2C3O)OC(n2cnc3c(N)nc(F)nc32)C4O)c(=O)[nH]1 (stereo not shown) [CDN-2, (2',3')-cyclo-(Rp,Rp)-[2'-O-thiophosphodiester-guanosine]-[3'-O-thiophosphodiester-2-fluoro-adenosine]diammonium salt] | – | – | – | significant STING agonist activity | particularly significant inhibitory ability | EC50 (THP-1 cells; [3]): 1 to 10 µM
Nc1nc2c(ncn2[C@@H]2O[C@@H]3CO[P@@](=O)(S)O[C@H]4C[C@H](n5cnc6c(N)nc(Cl)nc65)O[C@@H]4CO[P@@](=O)(S)O[C@@H]2[C@@H]3O)c(=O)[nH]1 [CDN-4, (2',3')-cyclo-(Rp,Rp)-[2'-O-thiophosphodiester-guanosine]-[3'-O-thiophosphodiester-2-chloro-2'-deoxy-adenosine]diammonium salt] | 1 to 10 | 75.3 | 1 to 10 | significant STING agonist activity | particularly significant inhibitory ability | –
Nc1nc2c(ncn2[C@@H]2O[C@@H]3CO[P@@](=O)(S)O[C@H]4[C@H](F)[C@H](n5cnc6c(N)nc(Cl)nc65)O[C@@H]4CO[P@@](=O)(S)O[C@H]3[C@H]2O)c(=O)[nH]1 [CDN-5, (3',3')-cyclo-(Rp,Rp)-[3'-O-thiophosphodiester-guanosine]-[3'-O-thiophosphodiester-2-chloro-2'-deoxy-2'-fluoro-beta-adenosine]diammonium salt] | 1 to 10 | 71.7 | 1 to 10 | significant STING agonist activity | particularly significant inhibitory ability | –
Nc1nc2c(ncn2[C@@H]2O[C@@H]3CO[P@](=O)(S)O[C@H]4[C@H](F)[C@H](n5cnc6c(N)nc(Cl)nc65)O[C@@H]4CO[P@@](=O)(S)O[C@@H]2[C@@H]3O)c(=O)[nH]1 [CDN-7, (2',3')-cyclo-(Rp,Sp)-[2'-O-thiophosphodiester-guanosine]-[3'-O-thiophosphodiester-2-chloro-2'-deoxy-2'-fluoro-beta-adenosine]diammonium salt] | 10.1 to 100 | – | – | – | – | –
CNc1nc(N)c2ncn([C@@H]3O[C@@H]4CO[P@@](=O)(S)O[C@@H]5[C@H](O)[C@@H](CO[P@@](=O)(S)O[C@H]4[C@@H]3F)O[C@H]5n3cnc4c(=O)[nH]c(N)nc43)c2n1 [CDN-8, (2',3')-cyclo-(Rp,Rp) - [2'-O-thiophosphodiester-guanosine]-[3'-O-thiophosphodiester-2-methylamino-2'-deoxy-2'-fluoro-beta-adenosine] diammonium salt] | 1 to 10 | – | 1 to 10 | significant STING agonist activity | particularly significant inhibitory ability | –
Nc1nc2c(ncn2C2OC3COP(=O)(S)OC4C(COP(=O)(S)OC2C3O)OC(n2cnc3c(N)ncnc32)C4F)c(=O)[nH]1 (stereo not shown) [CDN-11] | 1 to 10 | – | – | significant STING agonist activity | – | –
Nc1nc2c(ncn2C2OC3COP(=O)(S)OC4CC(n5cnc6c(N)ncnc65)OC4COP(=O)(S)OC3C2O)c(=O)[nH]1 (stereo not shown) [CDN-12] | 1 to 10 | – | – | significant STING agonist activity | – | –
Nc1nc(Cl)nc2c1ncn2[C@H]1C[C@H](O)[C@@H](CO)O1 [Cladribine, cladribine, reference compound] | – | – | – | – | – | IC50 (CT26 cells [2]; [4]): < 1 µM
Nc1nc(Cl)nc2c1ncn2[C@@H]1O[C@H](CO)[C@@H](O)[C@@H]1F [Clofarabine, clofarabine, reference compound] | – | – | – | – | – | IC50 (CT26 cells [2]; [4]): < 1 µM
Nc1ccn([C@@H]2O[C@H](CO)[C@@H](O)C2(F)F)c(=O)n1 [Gemcitabine, Gemcitabine Hydrochloride, reference compound] | – | – | – | – | – | IC50 (CT26 cells [2]; [4]): < 1 µM
(2',3')-cyclo-(Rp,Rp)-[2'-O-dithiophosphodiester-guanosine]-[3'-O-dithiophosphate diester -2-amino-3-methoxy-adenosine]diammonium salt [CDN-1] | – | – | – | – | particularly significant inhibitory ability | EC50 (THP-1 cells; [3]): 10.1 to 100 µM
(3',3')-cyclo-(Rp,Rp)-[3'-O-thiophosphodiester-guanosine]-[3'-O-thiophosphodiester-2-chloro-2'-deoxy-adenosine]diammonium salt [CDN-6] | – | 67.4 | – | significant STING agonist activity | particularly significant inhibitory ability | EC50 (THP-1 cells; [3]): 1 to 10 µM; tumor growth inhibition rate (CT26 cells [1]): 99.5%; IC50 (CT26 cells [2]; 120 hours incubation, CellTiter-Glo): 1 to 10 µM
